The molecules below were run on human primary T-cells, IL-2 stimulated proliferation (JAK-1 and JAK-3 dependent; reported as JAK3 activity) (assay: Human primary T-cell proliferation stimulated by IL-2 (Example 3)). Conditions: Homo sapiens, T-cell, tested under conditions described in Example 3 (IL-2 stimulated human primary T-cell proliferation); read-out: ability to inhibit JAK3 activity, IC50 range (Table V).
Assay type: cell-based
How it was run: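 Peripheral-blood human T-cells pre-activated via TCR/CD28, IL-2-starved overnight, then cultured 72 h at 37 °C with compound in Yssel's medium containing IL-2 (80 U/mL in cell suspension). Proliferation read as viable-cell ATP by CellTiter-Glo luminescence; reduction versus control taken as JAK pathway inhibition.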

Row | Compound | IC50 [nM]
1 | Cc1ccc(Nc2ncc(C)c(Nc3ccc4oc(=O)[nH]c4c3)n2)cc1-c1ccncc1 [Compound I-443, 5-(5-methyl-2-(4-methyl-3-(pyridin-4-yl)phenylamino)pyrimidin-4-ylamino)benzo[d]oxazol-2(3H)-one] | < 500
2 | Cc1cnc(Nc2ccc(F)c(-c3ccncc3)c2)nc1Nc1ccc2oc(=O)[nH]c2c1 [Compound I-471, 5-(2-(4-fluoro-3-(pyridin-4-yl)phenylamino)-5-methylpyrimidin-4-ylamino)benzo[d]oxazol-2(3H)-one] | < 500
3 | Cc1cnc(Nc2ccc3cn[nH]c3c2)nc1Nc1ccc2oc(=O)[nH]c2c1 [IV-4, N4-(benzo[d]oxazol-2(3H)-on-5-yl)-N2-(1H-indazol-6-yl)-5-methylpyrimidine-2,4-diamine] | < 500
4 | Cc1cnc(Nc2ccc(N3CCN[C@@H](C)C3)nc2)nc1Nc1ccc2oc(=O)[nH]c2c1 [II-44, 5-{5-Methyl-2-[6-((S)-3-methyl-piperazin-1-yl)-pyridin-3-ylamino]-pyrimidin-4-ylamino}-3H-benzooxazol-2-one] | < 500
5 | Cc1cnc(Nc2cnc(N3CCN4CCC3CC4)c(Cl)c2)nc1Nc1ccc2oc(=O)[nH]c2c1 [II-150, 5-(2-(6-(1,4-diazabicyclo[3.2.2]nonan-4-yl)-5-chloropyridin-3-ylamino)-5-methylpyrimidin-4-ylamino)benzo[d]oxazol-2(3H)-one] | < 500
6 | COc1cc(Nc2ncc(C)c(Nc3ccc4oc(=O)[nH]c4c3)n2)ccc1C(=O)N1CCOCC1 [Compound I-269, 5-(2-(3-methoxy-4-(morpholine-4-carbonyl)phenylamino)-5-methylpyrimidin-4-ylamino)benzo[d]oxazol-2(3H)-one] | < 500
7 | Cc1cnc(Nc2cnc(N3CCN(C)CC3)c(C)c2)nc1Nc1ccc2oc(=O)[nH]c2c1 [II-26, N4-(benzoxazolin-2-on-5-yl)-N2-[3-methyl-2-(4-methylpiperazin-1-yl)pyridin-5-yl]-5-methylpyrimidine-2,4-diamine] | < 500
8 | Cc1cnc(Nc2ccc(N3CCN(C)CC3)nc2)nc1Nc1cc(F)c2oc(=O)[nH]c2c1 [II-75, 7-fluoro-5-(5-methyl-2-(6-(4-methylpiperazin-1-yl)pyridin-3-ylamino)pyrimidin-4-ylamino)benzo[d]oxazol-2(3H)-one] | < 500
9 | CCOc1cc(Nc2ncc(C)c(Nc3ccc4oc(=O)[nH]c4c3)n2)ccc1Cl [Compound I-182, 5-[2-(4-Chloro-3-ethoxy-phenylamino)-5-methyl-pyrimidin-4-ylamino]-3H-benzooxazol-2-one] | < 500
10 | Cc1cnc(Nc2ccc(C(N)=O)cc2)nc1Nc1ccc2oc(=O)[nH]c2c1 [Compound I-3, N4-(benzo[d]oxazol-2(3H)-on-5-yl)-N2-(4-aminocarbonylphenyl)-5-methylpyrimidine-2,4-diamine] | < 500
11 | Cc1cnc(Nc2ccc3c(c2)C=CCN(C)C3=O)nc1Nc1ccc2oc(=O)[nH]c2c1 [IV-19, (Z)-5-(5-methyl-2-(2-methyl-1-oxo-2,3-dihydro-1H-benzo[c]azepin-7-ylamino)pyrimidin-4-ylamino)benzo[d]oxazol-2(3H)-one] | < 500
12 | Cc1cnc(Nc2ccc3c(c2)OC(F)(F)O3)nc1Nc1ccc2oc(=O)[nH]c2c1 [IV-36, N2-(2,2-difluoro-2H-1,3-benzodioxol-5-yl)-5-methyl-N4-(2-oxo-2,3-dihydro-1,3-benzoxazol-5-yl)-2,4-pyrimidinediamine] | < 500
13 | Cc1cnc(Nc2ccc(C(N)=O)cc2)nc1Nc1ccc2oc(=O)n(COP(=O)(OC(C)(C)C)OC(C)(C)C)c2c1 [Compound I-146, di-tert-butyl (5-(2-(4-carbamoylphenylamino)-5-methylpyrimidin-4-ylamino)-2-oxobenzo[d]oxazol-3(2H)-yl)methyl phosphate] | 500 to 5000
14 | CCN1Cc2ccc(Nc3ncc(C)c(Nc4ccc5oc(=O)[nH]c5c4)n3)cc2C1 [III-5, N4-(benzo[d]oxazol-2(3H)-on-5-yl)-N2-(2-ethylisoindolin-5-yl)-5-methylpyrimidine-2,4-diamine] | < 500
15 | Cc1cnc(Nc2cccc(Br)c2)nc1Nc1ccc2oc(=O)[nH]c2c1 [Compound I-175, 5-[2-(3-Bromo-phenylamino)-5-methyl-pyrimidin-4-ylamino]-3H-benzooxazol-2-one] | < 500
16 | Cc1cccc(Nc2ncc(C)c(Nc3ccc4oc(=O)[nH]c4c3)n2)n1 [IV-51, 5-(5-methyl-2-(6-methylpyridin-2-ylamino)pyrimidin-4-ylamino)benzo[d]oxazol-2(3H)-one] | 500 to 5000
17 | Cc1cnc(Nc2ccc(OCCN3CCOCC3)c(Cl)c2)nc1Nc1ccc2oc(=O)[nH]c2c1 [Compound I-191, 5-{2-[3-Chloro-4-(2-morpholin-4-yl-ethoxy)-phenylamino]-5-methyl-pyrimidin-4-ylamino}-3H-benzooxazol-2-one] | < 500
18 | COc1cc(Nc2ncc(C)c(Nc3ccc4oc(=O)[nH]c4c3)n2)cc(C(C)N2CCCC2)c1 (stereo not shown) [Compound I-234, 5-(2-(3-methoxy-5-(1-(pyrrolidin-1-yl)ethyl)phenylamino)-5-methylpyrimidin-4-ylamino)benzo[d]oxazol-2(3H)-one] | < 500
19 | Cc1cnc(Nc2ccc(C(C)C)cc2)nc1Nc1ccc2oc(=O)[nH]c2c1 [Compound I-419, 5-(2-(4-isopropylphenylamino)-5-methylpyrimidin-4-ylamino)benzo[d]oxazol-2(3H)-one] | < 500
20 | CC(=O)N1Cc2ccc(Nc3ncc(C)c(Nc4ccc5oc(=O)[nH]c5c4)n3)cc2C1 [III-12, 5-[2-(2-Acetyl-2,3-dihydro-1H-isoindol-5-ylamino)-5-methyl-pyrimidin-4-ylamino]-3H-benzooxazol-2-one] | < 500
21 | COc1cc(Nc2ncc(F)c(Nc3ccc4oc(=O)[nH]c4c3)n2)cc(OC)c1OC [Compound I-115, N4-(benzoxazolin-2-on-5-yl)-N2-(3,4,5-trimethoxyphenyl)-5-fluoropyrimidine-2,4-diamine] | < 500
22 | COc1cc(Nc2ncc(C)c(Nc3ccc4oc(=O)[nH]c4c3)n2)cc(C(C)O)c1 (stereo not shown) [Compound I-423, 5-(2-(3-(1-hydroxyethyl)-5-methoxyphenylamino)-5-methylpyrimidin-4-ylamino)benzo[d]oxazol-2(3H)-one] | < 500

Same assay, conditions: tested under conditions described in Example 3 (IL-2 stimulated human primary T-cell proliferation); read-out: ability to inhibit JAK3 activity, IC50 range (Table V)

Row | Compound | IC50 [nM]
23 | COc1ccc(Nc2ncc(C)c(Nc3ccc4oc(=O)[nH]c4c3)n2)cc1C(F)(F)F [Compound I-297, N2-(4-methoxy-3-trifluoromethyl)phenyl-5-methyl-N4-(2-oxo-2,3-dihydro-1,3-benzoxazol-5-yl)-2,4-pyrimidinediamine] | < 500
24 | COC(=O)c1ccc(Nc2ncc(C)c(Nc3ccc4oc(=O)[nH]c4c3)n2)cc1OC [Compound I-336, N2-(3-methoxy-4-methoxycarbonyl)phenyl-5-methyl-N4-(2-oxo-2,3-dihydro-1,3-benzoxazol-5-yl)-2,4-pyrimidinediamine] | < 500
25 | CC(=O)N1CCN(c2ccc(Nc3ncc(C)c(Nc4ccc5oc(=O)[nH]c5c4)n3)cc2)CC1 [Compound I-343, N2-[4-(4-acetyl)piperazino]phenyl-5-methyl-N4-(2-oxo-2,3-dihydro-1,3-benzoxazol-5-yl)-2,4-pyrimidinediamine] | < 500
26 | Cn1c(=O)n(C)c2cc(Nc3nc(Nc4cccc(NS(C)(=O)=O)c4)ncc3F)ccc21 [Compound I-42, N4-(1,3-dimethylbenzimidazolin-2-on-5-yl)-N2-((3-methylsulfonylamino)phenyl)-5-fluoropyrimidine-2,4-diamine] | 500 to 5000
27 | CCCn1c(=O)oc2ccc(Nc3nc(Nc4ccc(NS(C)(=O)=O)cc4)ncc3C)cc21 [Compound I-8, N4-(3-n-propylbenzo[d]oxazol-2(3H)-on-5-yl)-N2-((4-methylsulfonylamino)phenyl)-5-methylpyrimidine-2,4-diamine] | < 500
28 | Cc1cnc(Nc2cccc(S(C)(=O)=O)c2)nc1Nc1ccc2c(c1)n(C)c(=O)n2C [Compound I-36, N4-(1,3-dimethylbenzimidazolin-2-on-5-yl)-N2-((3-methylsulfonyl)phenyl)-5-methylpyrimidine-2,4-diamine] | < 500
29 | Cc1cnc(Nc2ccc(C)c(C)c2F)nc1Nc1ccc2oc(=O)[nH]c2c1 [Compound I-493, N2-(3,4-dimethyl-2-fluoro)phenyl-5-methyl-N4-(2-oxo-2,3-dihydro-1,3-benzoxazol-5-yl)-2,4-pyrimidinediamine] | < 500
30 | Cc1cnc(Nc2ccc(NS(C)(=O)=O)cc2)nc1Nc1ccc2oc(=O)n(C(C)C)c2c1 [Compound I-10, N4-(3-isopropylbenzo[d]oxazol-2(3H)-on-5-yl)-N2-((4-methylsulfonylamino)phenyl)-5-methylpyrimidine-2,4-diamine] | < 500
31 | Cc1cnc(Nc2cc(C(C)(C)C)cc(C(C)(C)C)c2)nc1Nc1ccc2oc(=O)[nH]c2c1 [Compound I-355, N2-(3,5-di-tert-butyl)phenyl-5-methyl-N4-(2-oxo-2,3-dihydro-1,3-benzoxazol-5-yl)-2,4-pyrimidinediamine] | 500 to 5000
32 | Cc1ccc(Nc2ncc(C)c(Nc3ccc4oc(=O)[nH]c4c3)n2)cc1OC(F)F [Compound I-390, N2-(3-difluoromethoxy-4-methyl)phenyl-5-methyl-N4-(2-oxo-2,3-dihydro-1,3-benzoxazol-5-yl)-2,4-pyrimidinediamine] | < 500
33 | Cc1cnc(Nc2cccc(S(N)(=O)=O)c2)nc1Nc1ccc2oc(=O)[nH]c2c1 [Compound I-14] | < 500
34 | Cc1cnc(Nc2ccc(F)c(NS(C)(=O)=O)c2)nc1Nc1ccc2oc(=O)n(C)c2c1 [Compound I-88, N2-((4-fluoro-3-methylsulfonylamino)phenyl)-N4-(3-methyl-2-oxo-2,3-dihydrobenzo[d]oxazol-5-yl)-5-methylpyrimidine-2,4-diamine] | < 500

From patent US10005767B2, “Compositions and methods for inhibition of the JAK pathway” (Rigel Pharmaceuticals, Inc., priority 2009, dated 2018)
